# Experimental data as given in PMC6658769, “First-Time-in-Human Study and Prediction of Early Bactericidal Activity for GSK3036656, a Potent Leucyl-tRNA Synthetase Inhibitor for Tuberculosis Treatment” (Antimicrobial Agents and Chemotherapy, 2019).
# Like-named read-outs stand apart in the source and are kept apart here. Marks after values point to notes of the source that are not given here.
# Legend:
# [1] = human, in vivo
# [2] = mouse, in vivo
# in vitro [3] = format: in vitro ADME; settings: dog, plasma
# [4] = tested on: panel of common bacterial pathogens; experiment: Activity against a panel of common bacterial pathogens; format: cell-based
# [5] = dog, in vivo
# [6] = tested on: M. tuberculosis bacterial strain H37Rv; parameters: method as in PMID 28953378; settings: in vitro; cited from earlier work
# [7] = Stability in pooled and spiked urine; format: physicochemical, human; settings: multiple freeze-thaw cycles and prolonged exposure to light
# [8] = FTIH study part A (single dose): safety and tolerability
# in vitro [9] = format: in vitro ADME; settings: rat, plasma
# [10] = biological target: M. tuberculosis enzyme leucyl-tRNA synthetase (LeuRS); parameters: method as in PMID 28953378; settings: LeuRS aminoacylation assay; cited from earlier work
# [11] = both, human, in vivo
# in vitro [12] = format: in vitro ADME; settings: mouse, plasma
# [13] = rat, in vivo
# clinical = settings: human, in vivo
# [14] = Nonclinical toxicity studies (NOAEL exposure); format: in vivo; settings: oral
# Description: The principal findings observed in nonclinical toxicity studies following oral administration of GSK3036656 were cardiovascular and hematopoietic, with some minor changes in the liver, kidney, and thymus. The hematopoietic, kidney, liver, and thymus effects are considered either nonadverse or monitorable in the clinic. The structural cardiovascular changes that occurred in a single species at high doses were nonmonitorable but occurred at plasma concentrations where heart rate (HR) and blood pressure (BP) changes are recorded. Specific cardiovascular safety endpoints were included in the first-time-in-human (FTIH) study, including vital sign (HR and BP) stopping criteria.
# [15] = human, in vivo; remark: listed apart in the source
# M. tuberculosis H37Rv = experiment: Acute lung infection model in mice; format: in vivo, C57BL/6 mice
# Procedure: The efficacy of GSK3036656 was assessed in C57BL/6 mice having acute and chronic lung infections by M. tuberculosis H37Rv, which mimic infections by actively replicating and nonreplicating/slow-replicating mycobacteria, respectively ([13], [14]). In the acute model, 10 mice were administered different daily oral doses ranging from 0.1 to 100 mg/kg of body weight for 8 days starting 1 day after infection. A maximum difference of 3.6 log CFU was obtained in the lungs compared to untreated mice. […] In the chronic model, a total of 18 mice were administered doses ranging from 0.1 to 30 mg/kg from weeks 6 to 14 after infection. Maximum reduction (drop of 2.1 log10 CFU in the lungs) was achieved after 2 months of daily oral treatment and after fitting the data to a sigmoidal curve. The EDmax for GSK3036656 was estimated as 1.3 mg/kg ([…], 0.7 to 3.4 mg/kg). […] Some additional groups treated at 0.3 to 30 mg/kg were studied in the chronic model to obtain kinetic data (from 2 to 16 weeks of treatment).
smiles,measurement,setting,value
"NC[C@H]1OB(O)c2c(OCCO)ccc(Cl)c21 [GSK3036656, (S)-3-(aminomethyl)-4-chloro-7-(2-hydroxyethoxy)benzo[c][1,2]oxaborol-1(3H)-ol]","Absorption lag time, bootstrap median estimate",[1],0.24 h
same,"Absorption lag time, estimate (%SE)",[1],0.235 (3) h
same,"Ka, bootstrap median estimate",[1],0.95 h⁻¹
same,"Ka, estimate (%SE)",[1],0.925 (23) h^−1
same,"Residual variability (Prop), bootstrap median estimate",[1],12.6%
same,"Residual variability (Prop), estimate (%SE)",[1],12.9 (16) %
same,oral bioavailability,[2],very high
same,fraction unbound,in vitro [3],0.76
same,activity against a panel of common bacterial pathogens,[4],inactivity
same,oral bioavailability,[5],very high
same,MIC,[6],0.0235 µg/mL
same,stability in pooled and spiked urine,[7],degraded to GSK3635633
same,No. (%) of subjects with AE: Musculoskeletal chest pain,[8]; single dose 5 mg (n = 6),0 No. (%)
same,No. (%) of subjects with AE: Musculoskeletal chest pain,"[8]; single dose 5 mg, fed (n = 5)",0 No. (%)
same,No. (%) of subjects with AE: Musculoskeletal chest pain,[8]; single dose 15 mg (n = 6),0 No. (%)
same,No. (%) of subjects with AE: Musculoskeletal chest pain,[8]; single dose 25 mg (n = 6),1 (17) No. (%)
same,fraction unbound,in vitro [9],0.688
same,50% inhibitory concentration (IC50),[10],0.0588 µg/mL
same,"dose-proportionality slope, AUC0–t",[11],1.32
same,"dose-proportionality slope, Cmax and AUC0–∞",[11],0.96
same,fraction unbound,in vitro [12],0.792
same,oral bioavailability,[13],very high
same,AUC,"clinical; both, 15 mg, steady-state AUC (on average)",4460 ng·h/mL
same,AUC(0-t),"clinical; po, 5 mg",486 ng·h/mL
same,Cmax,"clinical; po, 5 mg",48.4 ng/mL
same,Cmax at 14 days,"clinical; po, 5 mg",97 ng/mL
same,Tmax,"clinical; po, 5 mg",78 min
same,Tmax at 14 days,"clinical; po, 5 mg",48 min
same,AUC,"clinical; po, 5 mg, AUC(Ro), geometric LS mean, Ref",486 ng·h/mL
same,AUC,"clinical; po, 5 mg, AUC(Ro), geometric LS mean, Test",1390 ng·h/mL
same,AUC,"clinical; po, 5 mg, Geometric mean AUC0–τ (%CVb)",1390 ng·h/mL
same,AUC(0-t),"clinical; po, 15 mg",1890 ng·h/mL
same,Cmax,"clinical; po, 15 mg",179 ng/mL
same,Cmax at 14 days,"clinical; po, 15 mg",310 ng/mL
same,Tmax at 14 days,"clinical; po, 15 mg",48 min
same,AUC,"clinical; po, 15 mg, AUC(Ro), geometric LS mean, Ref",1890 ng·h/mL
same,AUC,"clinical; po, 15 mg, AUC(Ro), geometric LS mean, Test",4460 ng·h/mL
same,AUC,"clinical; po, 15 mg, Geometric mean AUC0–τ (%CVb)",4460 ng·h/mL
same,AUC,[14]; plasma,4900 ng·h/mL
same,Cmax,[14]; serum,< 443 ng/mL
same,Tmax difference (fed-fasted),[15],0.75^b h
same,maximum difference in the lungs compared to untreated mice,M. tuberculosis H37Rv; daily oral doses 0.1 to 100 mg/kg for 8 days,3.6 log CFU
same,EDmax (effective dose giving 90% of the total effect),M. tuberculosis H37Rv; sigmoidal fit,1.1 mg/kg
